For test [1], the target named is Fibroblast growth factor receptor 1 (Homo sapiens) (UniProt P11362). Nature of the test: Inhibition of wild-type human partial length FGFR1 (P357 to V669 residues) expressed in bacterial expression system at 10 uM by Kinomescan method relative to control.
Test [2] addresses 5'-AMP-activated protein kinase catalytic subunit alpha-1 (Homo sapiens) (UniProt Q13131). Put plainly: Inhibition of wild-type human partial length AMPK alpha1 (M1 to E306 residues) expressed in bacterial expression system at 10 uM by Kinomescan method relative to control.
Test [3] has as its target Myosin light chain kinase 2, skeletal/cardiac muscle (Homo sapiens) (UniProt Q9H1R3). Put plainly: Inhibition of wild-type human partial length MYLK2 (D258 to K570 residues) expressed in bacterial expression system at 10 uM by Kinomescan method relative to control.
Test [4] concerns Leucine-rich repeat serine/threonine-protein kinase 2 (Homo sapiens), Q5S007 [G2019S]. Put plainly: Inhibition of human partial length LRRK2 G2019S mutant (H970 to E2527 residues) expressed in mammalian expression system at 10 uM by Kinomescan method relative to control.
Test [5] has as its target STE20-like serine/threonine-protein kinase (Homo sapiens) (UniProt Q9H2G2). Nature of the test: Inhibition of wild-type human partial length SLK (S14 to A307 residues) expressed in bacterial expression system at 10 uM by Kinomescan method relative to control.
Test [6] has as its target BDNF/NT-3 growth factors receptor (Homo sapiens) (UniProt Q16620). Put plainly: Inhibition of wild-type human partial length TRKB (Q547 to G838 residues) expressed in mammalian expression system at 10 uM by Kinomescan method relative to control.
The target in test [7] is G protein-coupled receptor kinase 3 (Homo sapiens) (UniProt P35626). Put plainly: Inhibition of wild-type human full length GRK3 (M1 to L688 residues) expressed in mammalian expression system at 10 uM by Kinomescan method relative to control.
For test [8], the target named is Ribosomal protein S6 kinase alpha-1 (Homo sapiens) (UniProt Q15418). Nature of the test: Inhibition of wild-type human partial length N-terminal RSK1 Kinase domain 1 (M1 to E388 residues) expressed in bacterial expression system at 10 uM by Kinomescan method relative to control.
The target in test [9] is Ribosomal protein S6 kinase alpha-5 (Homo sapiens) (UniProt O75582). Nature of the test: Inhibition of wild-type human partial length C-terminal RPS6KA5 kinase domain 2 (V390 to T718 residues) expressed in bacterial expression system at 10 uM by Kinomescan method relative to control.
The subject of test [10] is Receptor-type tyrosine-protein kinase FLT3 (Homo sapiens), P36888 [D835Y]. Nature of the test: Inhibition of human partial length FLT3 D835Y mutant (Q580 to Y969 residues) expressed in bacterial expression system at 1 uM by Kinomescan method relative to control.
Test [11] concerns Phosphatidylinositol 4,5-bisphosphate 3-kinase catalytic subunit alpha isoform (Homo sapiens), P42336 [H1047L]. Put plainly: Inhibition of human partial length PIK3CA H1047L mutant (R108 to N1068 residues) expressed in mammalian expression system at 1 uM by Kinomescan method relative to control.
Test [12] has as its target Rho-associated protein kinase 1 (Homo sapiens) (UniProt Q13464). Put plainly: Inhibition of wild-type human partial length ROCK1 (M1 to R415 residues) expressed in mammalian expression system at 1 uM by Kinomescan method relative to control.
Test [13] concerns the target Uncharacterized serine/threonine-protein kinase SBK3 (Homo sapiens) (UniProt P0C264). Nature of the test: Inhibition of wild-type human partial length SgK110 (L22 to R329 residues) expressed in bacterial expression system at 1 uM by Kinomescan method relative to control.
The target in test [14] is Receptor-type tyrosine-protein kinase FLT3 (Homo sapiens) (UniProt P36888). Nature of the test: Inhibition of wild-type human partial length FLT3 (V592 to Y969 residues) expressed in bacterial expression system at 1 uM by Kinomescan method relative to control.
Test [15] has as its system Mast/stem cell growth factor receptor Kit (Homo sapiens), P10721 [A829P]. Nature of the test: Inhibition of human partial length KIT A829P mutant (I571 to D952 residues) expressed in mammalian expression system at 1 uM by Kinomescan method relative to control.
Test [16] concerns the target Serine/threonine-protein kinase 38-like (Homo sapiens) (UniProt Q9Y2H1). Nature of the test: Inhibition of wild-type human partial length NDR2 (N34 to E447 residues) expressed in bacterial expression system at 1 uM by Kinomescan method relative to control.
The subject of test [17] is ALK tyrosine kinase receptor (Homo sapiens), Q9UM73 [C1156Y]. Put plainly: Inhibition of wild-type human partial length ALK C1156Y mutant (I1088 to E1409 residues) expressed in mammalian expression system at 1 uM by Kinomescan method relative to control.
The target in test [18] is Vascular endothelial growth factor receptor 1 (Homo sapiens) (UniProt P17948). Put plainly: Inhibition of wild-type human partial length FLT1 (R781 to F1239 residues) expressed in bacterial expression system at 1 uM by Kinomescan method relative to control.
Test [19] concerns the target Inhibitor of nuclear factor kappa-B kinase subunit alpha (Homo sapiens) (UniProt O15111). Nature of the test: Inhibition of wild-type human full length IKK-alpha (M1 to E745 residues) expressed in mammalian expression system at 1 uM by Kinomescan method relative to control.
The target of test [20] is Ephrin type-B receptor 4 (Homo sapiens) (UniProt P54760). Nature of the test: Inhibition of wild-type human partial length EPHB4 (H585 to G892 residues) expressed in bacterial expression system at 1 uM by Kinomescan method relative to control.
Test [21] deals with Phosphatidylinositol 5-phosphate 4-kinase type-2 gamma (Homo sapiens) (UniProt Q8TBX8). Nature of the test: Inhibition of wild-type human partial length PIP5K2C (M1 to A421 residues) expressed in mammalian expression system at 1 uM by Kinomescan method relative to control.
The target in test [22] is Glycogen synthase kinase-3 alpha (Homo sapiens) (UniProt P49840). Nature of the test: Inhibition of wild-type human full length GSK3A (M1 to S483 residues) expressed in bacterial expression system at 1 uM by Kinomescan method relative to control.
For test [23], the target named is Tyrosine-protein kinase ITK/TSK (Homo sapiens) (UniProt Q08881). Put plainly: Inhibition of wild-type human partial length ITK (R335 to L620 residues) expressed in bacterial expression system at 1 uM by Kinomescan method relative to control.
Test [24] addresses Tyrosine-protein kinase SYK (Homo sapiens) (UniProt P43405). Put plainly: Inhibition of wild-type human partial length SYK (D354 to N635 residues) expressed in bacterial expression system at 1 uM by Kinomescan method relative to control.
Test [25] has as its target Mitogen-activated protein kinase kinase kinase kinase 4 (Homo sapiens) (UniProt O95819). Put plainly: Inhibition of wild-type human partial length MAP4K4 (M1 to R310 residues) expressed in bacterial expression system at 1 uM by Kinomescan method relative to control.
The target of test [26] is Serine/threonine-protein kinase 25 (Homo sapiens) (UniProt O00506). Put plainly: Inhibition of wild-type human partial length YSK1 (V14 to H295 residues) expressed in bacterial expression system at 1 uM by Kinomescan method relative to control.

Phosphatidylinositol 4,5-bisphosphate 3-kinase catalytic subunit alpha isoform (Homo sapiens), P42336 [H1047L], sequence (P42336 whole entry H1047L, the tested form may be a part, canonical isoform): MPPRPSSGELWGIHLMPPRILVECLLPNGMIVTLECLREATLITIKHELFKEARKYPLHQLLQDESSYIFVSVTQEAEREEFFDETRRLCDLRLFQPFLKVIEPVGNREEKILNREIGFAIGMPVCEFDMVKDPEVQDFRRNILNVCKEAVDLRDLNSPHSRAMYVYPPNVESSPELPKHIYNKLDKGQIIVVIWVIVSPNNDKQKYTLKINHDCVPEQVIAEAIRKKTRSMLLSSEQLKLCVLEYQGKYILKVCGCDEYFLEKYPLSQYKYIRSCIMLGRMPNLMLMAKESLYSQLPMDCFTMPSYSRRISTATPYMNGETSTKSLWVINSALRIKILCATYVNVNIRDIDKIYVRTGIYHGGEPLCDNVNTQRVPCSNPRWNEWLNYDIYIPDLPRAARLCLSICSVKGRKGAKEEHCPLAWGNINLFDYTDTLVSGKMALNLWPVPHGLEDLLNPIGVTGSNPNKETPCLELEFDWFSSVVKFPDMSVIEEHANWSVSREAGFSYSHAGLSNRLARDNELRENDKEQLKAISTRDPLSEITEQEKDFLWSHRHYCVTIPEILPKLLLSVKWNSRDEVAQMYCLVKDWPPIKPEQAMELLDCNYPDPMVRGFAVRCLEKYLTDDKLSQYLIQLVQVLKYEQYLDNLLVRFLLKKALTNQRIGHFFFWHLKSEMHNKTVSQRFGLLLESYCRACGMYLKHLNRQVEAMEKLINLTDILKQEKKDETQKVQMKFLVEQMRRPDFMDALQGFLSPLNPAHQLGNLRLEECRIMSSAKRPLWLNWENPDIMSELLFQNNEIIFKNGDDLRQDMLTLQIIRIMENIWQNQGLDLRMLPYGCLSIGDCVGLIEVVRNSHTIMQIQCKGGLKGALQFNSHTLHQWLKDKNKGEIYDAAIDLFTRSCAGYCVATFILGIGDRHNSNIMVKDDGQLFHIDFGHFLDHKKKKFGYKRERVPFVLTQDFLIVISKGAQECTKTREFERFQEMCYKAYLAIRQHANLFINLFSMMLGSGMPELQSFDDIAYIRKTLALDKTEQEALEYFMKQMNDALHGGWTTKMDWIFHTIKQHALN
Ribosomal protein S6 kinase alpha-5 (Homo sapiens), sequence (O75582 whole entry, looked up, the tested form may be a part): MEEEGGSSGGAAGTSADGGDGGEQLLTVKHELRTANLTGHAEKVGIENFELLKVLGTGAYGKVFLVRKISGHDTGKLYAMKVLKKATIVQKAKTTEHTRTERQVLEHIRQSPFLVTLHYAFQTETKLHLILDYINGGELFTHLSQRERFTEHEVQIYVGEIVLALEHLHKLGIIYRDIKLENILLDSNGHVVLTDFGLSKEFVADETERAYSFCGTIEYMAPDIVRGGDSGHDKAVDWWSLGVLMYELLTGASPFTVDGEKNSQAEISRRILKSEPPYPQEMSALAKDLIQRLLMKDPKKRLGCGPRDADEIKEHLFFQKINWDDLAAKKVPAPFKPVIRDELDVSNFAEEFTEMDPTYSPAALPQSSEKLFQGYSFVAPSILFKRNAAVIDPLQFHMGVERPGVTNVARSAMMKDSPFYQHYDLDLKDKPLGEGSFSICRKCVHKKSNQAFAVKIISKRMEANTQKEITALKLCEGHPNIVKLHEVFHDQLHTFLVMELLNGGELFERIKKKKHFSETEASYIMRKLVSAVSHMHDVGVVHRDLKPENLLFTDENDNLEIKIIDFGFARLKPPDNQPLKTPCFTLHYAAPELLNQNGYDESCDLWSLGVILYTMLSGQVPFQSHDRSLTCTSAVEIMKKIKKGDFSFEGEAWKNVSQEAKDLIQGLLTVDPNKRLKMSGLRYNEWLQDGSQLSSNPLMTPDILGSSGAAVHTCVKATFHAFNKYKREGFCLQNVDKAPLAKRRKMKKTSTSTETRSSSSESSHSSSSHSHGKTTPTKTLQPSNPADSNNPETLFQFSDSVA
5'-AMP-activated protein kinase catalytic subunit alpha-1 (Homo sapiens), sequence (Q13131 whole entry, looked up, the tested form may be a part): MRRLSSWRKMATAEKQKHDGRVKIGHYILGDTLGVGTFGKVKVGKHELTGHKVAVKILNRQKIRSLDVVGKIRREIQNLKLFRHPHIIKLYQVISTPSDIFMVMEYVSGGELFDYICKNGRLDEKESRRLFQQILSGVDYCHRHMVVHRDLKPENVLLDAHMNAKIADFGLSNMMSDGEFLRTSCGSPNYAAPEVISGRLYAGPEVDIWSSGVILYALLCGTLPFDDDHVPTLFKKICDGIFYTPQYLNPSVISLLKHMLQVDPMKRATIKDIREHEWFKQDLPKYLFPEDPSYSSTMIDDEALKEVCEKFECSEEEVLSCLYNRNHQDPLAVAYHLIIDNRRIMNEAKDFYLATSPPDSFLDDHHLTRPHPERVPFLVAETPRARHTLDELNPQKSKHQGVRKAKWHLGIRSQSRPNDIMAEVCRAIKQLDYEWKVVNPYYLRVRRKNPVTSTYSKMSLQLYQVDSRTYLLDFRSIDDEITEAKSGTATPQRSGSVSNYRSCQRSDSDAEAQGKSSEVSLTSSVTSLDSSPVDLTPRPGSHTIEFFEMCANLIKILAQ
Ephrin type-B receptor 4 (Homo sapiens), sequence (P54760 whole entry, the tested form may be a part): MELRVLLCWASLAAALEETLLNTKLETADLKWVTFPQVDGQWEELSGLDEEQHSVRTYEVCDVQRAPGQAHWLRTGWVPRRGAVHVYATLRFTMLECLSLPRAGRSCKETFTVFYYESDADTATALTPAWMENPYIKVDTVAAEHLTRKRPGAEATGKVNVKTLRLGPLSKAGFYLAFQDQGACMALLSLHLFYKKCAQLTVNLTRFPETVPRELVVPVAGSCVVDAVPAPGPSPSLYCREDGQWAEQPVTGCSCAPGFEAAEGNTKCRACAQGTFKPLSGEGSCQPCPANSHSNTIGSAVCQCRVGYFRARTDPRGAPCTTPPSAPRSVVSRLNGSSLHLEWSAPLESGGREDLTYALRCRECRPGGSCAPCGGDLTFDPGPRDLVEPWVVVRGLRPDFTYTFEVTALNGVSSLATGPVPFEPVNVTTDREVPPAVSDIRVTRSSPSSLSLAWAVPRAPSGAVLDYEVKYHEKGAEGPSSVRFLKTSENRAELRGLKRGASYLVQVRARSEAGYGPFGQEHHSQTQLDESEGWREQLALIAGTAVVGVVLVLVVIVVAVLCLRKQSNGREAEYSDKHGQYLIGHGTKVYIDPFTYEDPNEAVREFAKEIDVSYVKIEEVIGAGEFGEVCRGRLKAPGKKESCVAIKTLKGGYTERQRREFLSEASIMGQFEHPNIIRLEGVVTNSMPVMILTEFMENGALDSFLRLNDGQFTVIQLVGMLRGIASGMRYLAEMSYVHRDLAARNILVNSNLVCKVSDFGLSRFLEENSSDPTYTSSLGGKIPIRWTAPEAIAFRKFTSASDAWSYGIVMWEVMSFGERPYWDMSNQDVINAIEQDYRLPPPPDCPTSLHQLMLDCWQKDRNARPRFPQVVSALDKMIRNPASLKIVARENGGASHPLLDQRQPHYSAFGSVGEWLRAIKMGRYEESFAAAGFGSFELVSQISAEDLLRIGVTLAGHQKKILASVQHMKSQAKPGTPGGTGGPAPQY
Inhibitor of nuclear factor kappa-B kinase subunit alpha (Homo sapiens), sequence (O15111 whole entry, the tested form may be a part): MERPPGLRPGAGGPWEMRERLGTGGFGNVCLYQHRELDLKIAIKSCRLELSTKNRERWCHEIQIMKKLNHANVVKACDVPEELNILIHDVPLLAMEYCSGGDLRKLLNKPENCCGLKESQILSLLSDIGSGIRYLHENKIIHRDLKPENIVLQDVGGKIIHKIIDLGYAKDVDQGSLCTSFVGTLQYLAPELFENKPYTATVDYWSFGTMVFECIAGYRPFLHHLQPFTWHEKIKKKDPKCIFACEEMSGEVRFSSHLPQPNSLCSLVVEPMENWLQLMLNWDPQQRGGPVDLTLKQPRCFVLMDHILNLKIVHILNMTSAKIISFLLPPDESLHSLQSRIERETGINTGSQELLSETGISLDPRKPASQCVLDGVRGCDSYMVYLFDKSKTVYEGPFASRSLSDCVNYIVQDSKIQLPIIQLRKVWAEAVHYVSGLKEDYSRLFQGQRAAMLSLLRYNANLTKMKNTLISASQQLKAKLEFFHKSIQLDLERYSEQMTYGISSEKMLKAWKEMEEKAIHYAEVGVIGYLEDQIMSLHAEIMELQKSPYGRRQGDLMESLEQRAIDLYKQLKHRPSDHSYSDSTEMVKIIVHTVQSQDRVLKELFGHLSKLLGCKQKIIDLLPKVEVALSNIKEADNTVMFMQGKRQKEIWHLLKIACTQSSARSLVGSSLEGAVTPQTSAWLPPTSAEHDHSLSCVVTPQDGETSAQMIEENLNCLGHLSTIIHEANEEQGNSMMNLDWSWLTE
Phosphatidylinositol 5-phosphate 4-kinase type-2 gamma (Homo sapiens), sequence (Q8TBX8 whole entry, the tested form may be a part): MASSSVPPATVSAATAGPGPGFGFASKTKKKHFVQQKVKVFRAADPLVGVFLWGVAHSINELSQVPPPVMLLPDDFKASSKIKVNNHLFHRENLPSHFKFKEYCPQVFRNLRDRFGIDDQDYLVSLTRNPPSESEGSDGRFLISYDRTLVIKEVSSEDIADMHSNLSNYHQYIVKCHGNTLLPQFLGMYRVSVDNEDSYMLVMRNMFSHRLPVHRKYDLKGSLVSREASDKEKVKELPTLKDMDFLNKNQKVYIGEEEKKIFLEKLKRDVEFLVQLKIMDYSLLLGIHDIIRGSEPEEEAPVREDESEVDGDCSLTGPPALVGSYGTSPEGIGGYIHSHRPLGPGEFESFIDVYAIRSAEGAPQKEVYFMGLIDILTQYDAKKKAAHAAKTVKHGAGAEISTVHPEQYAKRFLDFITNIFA
Glycogen synthase kinase-3 alpha (Homo sapiens), sequence (P49840 2-483 limits assumed): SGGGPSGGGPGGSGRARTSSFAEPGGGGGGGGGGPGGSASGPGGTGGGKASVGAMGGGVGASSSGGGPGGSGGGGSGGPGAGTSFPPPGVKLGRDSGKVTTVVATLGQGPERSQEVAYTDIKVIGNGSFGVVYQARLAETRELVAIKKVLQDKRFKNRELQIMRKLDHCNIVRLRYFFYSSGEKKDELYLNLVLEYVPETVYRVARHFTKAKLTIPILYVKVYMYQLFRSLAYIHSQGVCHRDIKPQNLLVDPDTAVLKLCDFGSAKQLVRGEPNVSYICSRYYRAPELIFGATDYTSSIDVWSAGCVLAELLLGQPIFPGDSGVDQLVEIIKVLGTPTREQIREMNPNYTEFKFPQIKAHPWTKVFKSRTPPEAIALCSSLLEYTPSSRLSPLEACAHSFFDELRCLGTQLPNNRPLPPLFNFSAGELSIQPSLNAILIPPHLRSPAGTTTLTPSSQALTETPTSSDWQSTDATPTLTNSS

Turning to `O=C(Nc1cccc([C@H]2CCCN(c3ncnc4[nH]ccc34)C2)c1)Nc1ccccc1N1CCCC1`, the inhibition in test [1] is 36%; in test [2], 6.6%; in test [3], 58%; in test [4] it was 63%; in [5], 28%; in test [6], 69%. Further, the inhibition in test [7] turned out to be 71%; in [8], 42%; in test [9], 75%.
Consider `O=C(Nc1cccc([C@@H]2CN(c3ncnc4[nH]ccc34)CCN2CCO)c1)Nc1c(F)cccc1N1CCCC1`, for which the inhibition in test [10] was 2.2%; in [11], 100%; in test [12] it was 71%; in [13], 100%; in test [14], 52%; in test [15], 28%. In addition, the inhibition was found to be 100% in test [16]; 70% in test [17]; 35% in test [18]; 78% in test [19]; 95% in [20]; 83% in [21]. The inhibition in test [22] was 100%; in test [23], 0.8%; in [24], 97%; in test [25], 100%; in test [26], 91%.

For orientation: inhibition means the share of the control response that was lost under treatment. A lower inhibition goes with a weak effect.

These data come from ChEMBL document CHEMBL4387741, “Optimization of novel reversible Bruton's tyrosine kinase inhibitors identified using Tethering-fragment-based screens” (Bioorg Med Chem, 2019).
